The values that follow come from publication PMC10778758, “Dithioethanol (DTE)-Conjugated Deoxyribose Cyclic Dinucleotide Prodrugs (DTE-dCDNs) as STING Agonist” (International Journal of Molecular Sciences, 2023).

Series [1] relates to THP-1 cells. As to the kind of experiment: CCK8 cell viability, THP-1 cells. In kind it is cell-based. The settings on record: 10 μM, 24 h. The procedure: Cell viability of THP-1 and HEK293T cells. A total of 5 × 10^3 HEK293T cells or THP-1 cells were seeded in 96-well plates. […] Cell counting kit-8 (CCK8) (US EVERBRIGHT, Newport Beach, CA, USA, c6005) was then used to quantitatively assess the cell viability through the OD value at 450 nm. The HEK293T cell line was obtained from American Type Culture Collection (ATCC).
Figure 8 Cell viability of THP-1 and HEK293T cells stimulated by prodrug 9 and 2′,3′-cGAMP. (a) A total of 5 × 10^3 THP-1 cells or (b) HEK293T cells were seeded in 96-well plates. Cells were stimulated with prodrug 9 (10 μM), 3′,3′-c-di-dAMP (100 μM), and 2′,3′-cGAMP (100 μM) for 24 h. Then, cell counting kit-8 (CCK8) (US EVERBRIGHT, c6005) was used to quantitatively assess cell viability through the OD value at 450 nm. Data are presented as mean ± SD, n = 3.

In series [2] the test system is THP-1 cells. The experiment in a line: Western blot of STING/TBK1/IRF3 phosphorylation in THP-1 cells. The series is classed as cell-based. The note with it: 4 h. The procedure: Western blotting. THP-1 cells (8 × 10^5 cells/well) were seeded into a 6-well plate and treated with prodrug 9, 2′,3′-cGAMP, 3′,3′-c-di-dAMP, and ADU-S100 for 4 h. The total proteins from the cells were extracted via cold RIPA buffer supplemented with protease inhibitors. Cell lysates were harvested via 1 × SDS-PAGE sample loading buffer (Cat. code: P0015, Beyotime, Shanghai, China), boiled at 100 °C for 10 min. Cell lysates were run on 10% SDS-PAGE gels and transferred onto NC membranes. The membranes were blocked with 5% BSA for 1 h and incubated with primary antibodies against STING, phospho-STING (Ser366), TBK1, phospho-TBK1 (Ser172), IRF3, phospho-IRF3 (Ser386), or β-actin overnight at 4 °C. Horseradish peroxidase-conjugated secondary antibodies were used as secondary antibodies. Finally, the membrane was detected using enhanced chemiluminescence for imaging.
Figure 9 Prodrug 9 activated the STING signalling pathway through stimulating the phosphorylation of STING, TBK1, and IRF3. Prodrug 9 (10 μM), 2′,3′-cGAMP (100 μM), 3′,3′-c-di-dAMP (100 μM), and ADU-S100 (10 μM) were used to treat THP-1 cells for 4 h, and the levels of total STING, phospho-STING, total TBK1, phospho-TBK1, total IRF3, phospho-IRF3, and β-actin were detected via Western blotting. The raw images of western blots were also placed in pages S16–S22 in Supplementary Materials.
Figure S4. Relative quantification of phospho-STING, phospho-TBK1, phospho-IRF3. Prodrug 9 (10
μM), 2′,3′-cGAMP (100 μM), 3′,3′-c-di-dAMP (100 μM) and ADU-S100 (10 μM) were used to treat
THP-1 cells for 4 h, and the levels of total STING, phospho-STING, total TBK1, phospho-TBK1, total
IRF3, phospho-IRF3, and β-actin were assessed by western blotting. […]

The test system of series [3] is THP-1 cells. The settings on record: human, 10 μM.
Method: Uptake of DTE-dCDN Prodrug. THP-1 cells were seeded at a concentration of 5 × 10^6 cells/mL into a 12-well plate. After 16 h of incubation at 37 °C in a 5% CO2 atmosphere, the compounds were added to cell cultures and the cells were collected at time points of 1 h, 2 h, 4 h, 6 h, 8 h, 12 h, and 24 h by centrifugation for 1 min at 1000× g. The media was removed completely, and the cells were washed twice with 800 μL of ice-cold PBS before being lysed with 400 μL ice-cold 70% methanol. Lysates were incubated overnight at −20 °C and then centrifuged for 20 min at 13,000× g to remove cellular debris. The supernatant was analyzed via LC/MS/MS (Agilent 1290 Infinity II/6470A)
(a) The intracellular concentration of the prodrug 9 in THP-1 cells. (b) The intracellular concentration of the parent dCDN (3′,3′-c-di-dAMP) in THP-1 cells. THP-1 cells were treated with 10 μM prodrug 9 or 100 μM parent dCDN (3′,3′-c-di-dAMP) for the indicated period of time (1, 2, 4, 6, 8, 12, 24 h), and the intracellular concentration of the metabolites in cellular extracts was determined with liquid chromatograph MS/MS analysis.
[4] abbreviates: THP-1, prodrug 9 10 μM vs 2′,3′-cGAMP 100 μM.
The mark [5] stands for this setting: THP-1, prodrug 9 10 μM vs 3′,3′-c-di-dAMP 100 μM.
[6] abbreviates: THP-1, prodrug 9 10 μM vs ADU-S100 10 μM.

`Nc1ncnc2c1ncn2C1CC2OP(=O)(OCCSSc3ccccn3)OCC3OC(n4cnc5c(N)ncnc54)CC3OP(=O)(OCCSSc3ccccn3)OCC2O1` (centres unmarked) [prodrug 9]: in series [1], the “cell viability (CCK8), THP-1 cells” value was “no significant influence on the growth”. In series [2] (setting [4]), the “relative expression of phospho-IRF3, fold compared to 2′,3′-cGAMP” value is on record as 19.8 fold; the “relative expression of phospho-STING, fold compared to 2′,3′-cGAMP” value stood at 20.8 fold; the “relative expression of phospho-TBK1, fold compared to 2′,3′-cGAMP” value came to 6.9 fold. In addition, in series [2] (setting [5]), the “relative expression of phospho-IRF3, fold compared to 3′,3′-c-di-dAMP” value is 6.5 fold; the “relative expression of phospho-STING, fold compared to 3′,3′-c-di-dAMP” value worked out at 5.5 fold; the “relative expression of phospho-TBK1, fold compared to 3′,3′-c-di-dAMP” value is reported as 3.6 fold. In addition, in series [2] (setting [6]), the “relative expression of phospho-IRF3, fold compared to ADU-S100” value is on record as 1.8 fold; the “relative expression of phospho-STING, fold compared to ADU-S100” value was found to be 1.6 fold; the “relative expression of phospho-TBK1, fold compared to ADU-S100” value was found to be 1.3 fold. Also, the “time at which intracellular levels of prodrug 9 peaked” value in series [3] is 2 h.
